Series [1] can be described thus: In vivo oral bioavailability assay in rats. The settings on record: rat; for AUC(0-t): 0-24 hours; for MRT inf: read-out: MRT0-∞. The source says: The compound PCMI-08 was synthesized and detected according to the methods provided in the present invention. The internal standard, paclitaxel, was purchased from China's National Institute for the Control of Pharmaceutical and Biological Products (NICPBP). Chromatography-grade acetonitrile was purchased from Sigma-Aldrich Inc. Tween 80 and ethyl acetate were purchased from Aladdin reagent Inc. Male S.D. rats were purchased from Beijing Weitonglihua Inc. and raised in animal house for two weeks.
200 mg of PCMI-08 was dissolved in 4 ml of a mixed solution of Tween 80 and anhydrous ethanol (1:1) to prepare a stock solution at 50 mg/ml and normal saline was added to adjust to a suitable concentration. 12 male S.D. rats (300 g of body weight) were taken and divided into two groups after overnight fasting. One group was treated with intravenous injection (5 mg/kg) and the other group was treated orally (60 mg/kg). Blood was sampled in the intravenous group at 0th min, 5th min, 10th min, 20th min, 40th min, 1st h, 2nd h, 4th h, 6th h, 8th h, 12th h, 24th h, while the oral group at 5th min, 15th min, 30th min, 45th min, 1st h, 2nd h, 4th h, 6th h, 8th h, 12th h, 24th h. After 10 min centrifugation of plasma at 4500 rpm, the upper serum was taken and transferred to the corresponding EP tube, placed in a −40° C. freezer for assay.
Agilent 1100 series configuration: Agilent G1313A HPLC autosampler device, 150 mm×2.1 mm C18 Thermo column (particle size 3 μm) reversed-phase column, detection wavelength at 230 nm, column temperature at 30° C., mobile phase of acetonitrile/water (7:3), a flow rate at 0.2 ml/min, injection volume of 20 μl. The mass spectrometry (MS) combined was Thermo Finnigan TSQ Quantum triple quadrupole configurated with electrospray ionization (ESI) in the positive ion mode. The parameters of MS analysis were as follows: spray chamber voltage, 4.0 kv; heated capillary temperature, 350° C.; protective gas (nitrogen); 20 psi; auxiliary gas (nitrogen): 5 psi; collision gas (argon); pressure: 1.5 mmTorr.; Collision energy: CA 17 eV; FA and IFA were 19 eV; IS was 15 eV.
Paclitaxel was selected as an internal standard with a retention time of 3.07 min. Retention time of PCMI-08 was 5.13 min. MS detection condition to PCMI-08 was set as follows: 957→901 m/z; paclitaxel as an internal standard. Detection conditions: 876→308 m/z. The concentration range of the standard curve of PCMI-08 was 5-10,000 ng/ml (γ^2>0.99) and the minimum detection limit was 5 ng/ml.
100 μL of plasma samples were taken, into which 100 μL of the internal standard (paclitaxel, 500 ng/ml acetonitrile solution) was added, followed by addition of 3 ml of ethyl acetate after well homogenized via vortex, after 5 min shaking, centrifuging for 8 min at a rotating speed of 4500 rpm. The supernatant was transferred to a clean EP tube with nitrogen to blow to dry under heating condition. After reconstitution with 120 μL mobile phase (CH3CN/H2O=7:3), the solution was centrifuged at 12,000 rpm for 3 min, 100 μl of supernatant was taken and transferred to an autosampler vial. After LC-MS/MS detection, statistical data and pharmacokinetic parameters were processed by Xcalibur® (version 1.3) software (Thermo Finnigan).

The test system of a further series is LNCaP prostate cancer. The series can be described thus: MTT proliferation inhibition, LNCaP. The conditions noted are these: Homo sapiens, read-out: Proliferation inhibition rate, LNCaP Prostate cancer. The series is classed as cell-based. The source says: (§1) 1. Cytotoxicity Assay Using Human Tumor Cell Lines
(§2) Paclitaxel was used as the positive drug.

A further series relates to HCT 116 colon cancer. Kind of series: MTT proliferation inhibition, HCT 116. The series is classed as cell-based. The conditions noted are these: Homo sapiens, HCT-116, read-out: Proliferation inhibition rate, HCT 116 Colon cancer.
Text: as §1, §2

For another series, the system named is A2780 ovarian cancer. Kind of series: MTT proliferation inhibition, A2780. The series is classed as cell-based. The settings on record: Homo sapiens, A2780, read-out: Proliferation inhibition rate, A2780 Ovarian cancer.
Text: as §1, §2

[2] abbreviates: male, Sprague-Dawley, plasma, intravenous administration 5 mg/kg.
[3] abbreviates: male, Sprague-Dawley, plasma, oral administration 60 mg/kg.

This note sets out measurements from patent US9890175B2, “Taxane compound, and preparation method and use thereof” (JIANGSU TASLY DIYI PHARMACEUTICAL CO., LTD., priority 2013, dated 2018).

Read-outs that look alike come from different tables or passages of the source. Bounds are passed on as bounds.

What is called AUC(0-inf) is total exposure, with the tail of the curve extrapolated. A lower AUC(0-inf) goes with low exposure. One may read the Cmax as the highest concentration seen after dosing. Broadly, the Tmax is the time at which the peak concentration occurs. A word on the AUC(0-t): it is exposure summed from dosing to a finite time, without extrapolation to infinity. Read a low AUC(0-t) as low exposure. The term bioavailability denotes the share of a dose that reaches the circulation, judged against a reference dose that is usually intravenous.

In the case of `CO[C@H]1C[C@H]2OC[C@@]2(OC(C)=O)[C@H]2[C@H](OC(=O)c3ccccc3)[C@]34OC(=O)O[C@H]3[C@H](OC(=O)[C@H](O)[C@@H](NC(=O)OC(C)(C)C)c3ccccc3)C(C)=C([C@@H](OC(=O)N(C)C)C(=O)[C@]12C)C4(C)C` [PCMI-08], the half-life was around 10 h in series [1] (male, Sprague-Dawley, plasma, other: intravenous and oral (summary over both arms), route not specified, read-out: half-life (converted)); 10.2 ± 1.72 h in series [1] (male, Sprague-Dawley, plasma, intravenous administration 5 mg/kg, read-out: t1/2 (converted)); 10.4 ± 1.14 h in series [1] (male, Sprague-Dawley, plasma, oral administration 60 mg/kg, read-out: t1/2 (converted)). In addition, the AUC(0-inf) in series [1] (setting [2]) is 4050 ± 1860 ng·h/mL; in series [1] (setting [3]), 32000 ± 8540 ng·h/mL. Also, the Cmax in series [1] (setting [2]) was 11000 ± 2680 ng/mL; in series [1] (setting [3]), 2120 ± 454 ng/mL. In addition, the Tmax in series [1] (setting [2]) worked out at 0 h; in series [1] (setting [3]) it was 3 ± 1.1 h. In addition, the area under the curve AUC(0-t) in series [1] (setting [2]) was determined as 3440 ± 1480 ng·h/mL; in series [1] (setting [3]), 25300 ± 6150 ng·h/mL. The MRT inf in series [1] (setting [2]) was determined as 10.1 ± 2.6 h; in series [1] (setting [3]), 15.2 ± 1.71 h. Further, the bioavailability in series [1] (male, Sprague-Dawley, plasma, oral, 60 mg/kg, oral 60 mg/kg vs intravenous 5 mg/kg, read-out: F, absolute oral bioavailability) stood at 65.8%. Also, in series [1] (oral 60 mg/kg vs intravenous 5 mg/kg), the “F, absolute oral bioavailability” value worked out at 65.79%. Moreover, in series [1] (route not specified), the mean retention time was at least 10 h. The values for the inhibition at 1 µM in the series with LNCaP prostate cancer, with HCT 116 colon cancer and in the series with A2780 ovarian cancer were 84.3%, 58.7% and 92.5%, respectively.
